Results published in ChEMBL document CHEMBL3045458, “Design, synthesis and biological evaluation of novel arylidine-malononitrile derivatives as non-carboxylic inhibitors of protein tyrosine phosphatase 1B” (Med Chem Res, 2013).

Species on record: Danio rerio
Experiment: Toxicity in Danio rerio (zebrafish) embryo assessed as developmental delays at 10 uM after 24 to 72 hr by light microscopic analysis relative to control
Format: organism-based
Conditions: in vivo

| Structure (SMILES) | Activity |
| --- | --- |
| COc1ccccc1-c1nnc(SCCOc2ccc(C=C(C#N)C#N)cc2)o1 | Non-toxic |
| N#CC(C#N)=Cc1ccc(OCCSc2nnc(-c3ccccc3)o2)cc1 | Non-toxic |

Species on record: Danio rerio
Experiment: Toxicity in Danio rerio (zebrafish) embryo assessed as mortality at 10 uM after 24 to 72 hr by light microscopic analysis relative to control
Format: organism-based
Conditions: in vivo

| Structure (SMILES) | Activity |
| --- | --- |
| COc1ccccc1-c1nnc(SCCOc2ccc(C=C(C#N)C#N)cc2)o1 | Non-toxic |
| N#CC(C#N)=Cc1ccc(OCCSc2nnc(-c3ccccc3)o2)cc1 | Non-toxic |

What follows are compounds tested against T1, Tyrosine-protein phosphatase non-receptor type 1 (Homo sapiens) (UniProt P18031) (assay: Inhibition of PTP1B (unknown origin) at 10 uM). Conditions: not given.
T1 sequence (whole entry): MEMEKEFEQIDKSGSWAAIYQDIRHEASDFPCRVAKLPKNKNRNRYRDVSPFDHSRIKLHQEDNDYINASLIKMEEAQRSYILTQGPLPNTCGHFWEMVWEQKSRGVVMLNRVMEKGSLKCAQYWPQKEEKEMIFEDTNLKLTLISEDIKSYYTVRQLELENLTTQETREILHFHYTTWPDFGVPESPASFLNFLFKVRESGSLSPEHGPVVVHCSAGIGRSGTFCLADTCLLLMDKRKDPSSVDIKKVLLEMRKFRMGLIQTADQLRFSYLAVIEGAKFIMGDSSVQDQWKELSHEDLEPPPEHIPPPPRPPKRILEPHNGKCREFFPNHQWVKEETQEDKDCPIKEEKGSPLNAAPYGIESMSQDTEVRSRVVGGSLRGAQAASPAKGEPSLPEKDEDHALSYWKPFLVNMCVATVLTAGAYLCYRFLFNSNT

| inhibition | Structure (SMILES) |
| --- | --- |
| 30.4% | N#CC(C#N)=Cc1ccc(OCCSc2nnc(-c3ccc(F)cc3)o2)cc1 |
| 39% | COc1cccc(-c2nnc(SCCOc3ccc(C=C(C#N)C#N)cc3)o2)c1 |
| 44.5% | Cc1ccc(-c2nnc(SCCOc3ccc(C=C(C#N)C#N)cc3)o2)cc1 |

The remaining lines, values behind:

| Structure (SMILES) | inhibition |
| --- | --- |
| N#CC(C#N)=Cc1ccc(OCCSc2nnc(-c3ccccc3Cl)o2)cc1 | 23.4% |
| N#CC(C#N)=Cc1ccc(OCCSc2nnc(-c3ccc(Cl)cc3)o2)cc1 | 34.3% |
| COc1ccccc1-c1nnc(SCCOc2ccc(C=C(C#N)C#N)cc2)o1 | 50% |
| N#CC(C#N)=Cc1ccc(OCCSc2nnc(-c3ccccc3)o2)cc1 | 54.6% |
| N#CC(C#N)=Cc1ccc(OCCSc2nnc(-c3cccc([N+](=O)[O-])c3)o2)cc1 | 41.4% |

These compounds were tested on Danio rerio (assay: Toxicity in Danio rerio (zebrafish) embryo assessed as oedema at 10 uM after 24 to 72 hr by light microscopic analysis relative to control). Conditions: in vivo.
Format: organism-based

| Structure (SMILES) | Activity |
| --- | --- |
| COc1ccccc1-c1nnc(SCCOc2ccc(C=C(C#N)C#N)cc2)o1 | Non-toxic |
| N#CC(C#N)=Cc1ccc(OCCSc2nnc(-c3ccccc3)o2)cc1 | Non-toxic |

Each compound was assayed on L6 (Rattus norvegicus) (assay: Glucose uptake in Rattus norvegicus (rat) L6 cells at 50 uM). Conditions: not given.

| glucose uptake | Structure (SMILES) |
| --- | --- |
| 13.3% | N#CC(C#N)=Cc1ccc(OCCSc2nnc(-c3ccc(F)cc3)o2)cc1 |
| 13.5% | COc1cccc(-c2nnc(SCCOc3ccc(C=C(C#N)C#N)cc3)o2)c1 |
| 18.8% | Cc1ccc(-c2nnc(SCCOc3ccc(C=C(C#N)C#N)cc3)o2)cc1 |

Further lines, the compound ahead of its results:

| Structure (SMILES) | glucose uptake |
| --- | --- |
| N#CC(C#N)=Cc1ccc(OCCSc2nnc(-c3ccccc3Cl)o2)cc1 | 26.6% |
| N#CC(C#N)=Cc1ccc(OCCSc2nnc(-c3ccc(Cl)cc3)o2)cc1 | 24.2% |
| COc1ccccc1-c1nnc(SCCOc2ccc(C=C(C#N)C#N)cc2)o1 | 38.5% |
| N#CC(C#N)=Cc1ccc(OCCSc2nnc(-c3ccccc3)o2)cc1 | 25.3% |
| N#CC(C#N)=Cc1ccc(OCCSc2nnc(-c3cccc([N+](=O)[O-])c3)o2)cc1 | 11.8% |

Species on record: Danio rerio
Experiment: Toxicity in Danio rerio (zebrafish) embryo assessed as deformations at 10 uM after 24 to 72 hr by light microscopic analysis relative to control
Format: organism-based
Conditions: in vivo

| Structure (SMILES) | Activity |
| --- | --- |
| COc1ccccc1-c1nnc(SCCOc2ccc(C=C(C#N)C#N)cc2)o1 | Non-toxic |
| N#CC(C#N)=Cc1ccc(OCCSc2nnc(-c3ccccc3)o2)cc1 | Non-toxic |
